# “Also recorded” adds a separate entry of the source.
# Key:
# serum lipid levels [1] = experiment: Example 1: serum lipid levels; format: in vivo, human
# Description: In this study, lipids related to lipoprotein metabolism were determined as serum lipid test items. In the active group, postprandial elevations for RLP-C, TG, LDL-TG, HDL-TG, CM-TG, and ApoB48 (reference data) were inhibited, while LDL-C, HDL-C, TC, and ApoB values decreased. The manifestation of those effects required 3 to 7 days. […] This effect is attributable to the inhibition of diet-derived lipid absorption based on the MTP inhibitory activity of the compound of formula (I) in the small intestine.
# [2] = 3-month oral repeated dose toxicity study in dogs; format: in vivo; settings: 25 mg/kg
# serum lipid levels [3] = experiment: Example 3: serum lipid levels; format: in vivo, human; settings: active groups
# Description: Eighteen healthy Japanese males 20 to 35 years of age with a BMI of 18.5 to 25 kg/m^2 participated in the study. The subjects were divided into two dosing groups and within each dosing group, the subjects were divided as follows: 6 subjects received the compound of formula (I) and 3 subjects received placebo. The dosing regimen was oral administration of a tablet twice a day for 14 days after breakfast and dinner (specifically, within 180 minutes of the commencement of eating), in which each tablet contained 1 mg (2 mg/day) or 2 mg (4 mg/day).
# [4] = Example 4: pharmacokinetics; format: in vivo, human
# Description: One hundred five Japanese patients with hyperlipidemia (LDL-C between 140 and 220 mg/dL; TG≦400 mg/dL) participated in the study. […] For the efficacy analysis, 95 subjects were observed (0.5 mg BID: 25 subjects, 1 mg BID: 24 subjects, 2 mg BID: 22 subjects, 4 mg BID: 24 subjects).
# [5] = Example 5: fixed-dose or escalating doses, safety; format: in vivo, human
# Description: Fifty-two Japanese patients with hyperlipidemia (LDL-C between 140 and 220 mg/dL; TG≦400 mg/dL) participated in the study. […] One group received a fixed dose of 2 mg per tablet through the entire study. The other group received escalating doses of 0.5 mg (weeks 1-4), 1 mg (weeks 5-8), and 2 mg (weeks 9-12). For the efficacy analysis, 50 subjects were observed (25 in the fixed-dose group and 25 in the dose escalation group).
# The objective of this study was preliminary evaluation of the efficacy (based on serum lipid levels), safety, and pharmacokinetics of the compound of formula (I) administered orally twice daily after breakfast and supper for 12 weeks as a fixed dose (4 mg/day) or escalating dose (1 mg/day, 2 mg/day and 4 mg/day) regimen in patients with hyperlipidemia.
# [6] = Example 6: ascending dose study in healthy males and HTG patients, safety; format: in vivo
# Excerpt: (§1) Originally, the study was planned as 4 sequential cohorts of healthy male Caucasian subjects (Cohorts 1 to 4) followed by a cohort of male Caucasian patients with elevated triglycerides (HTG patients, Cohort 5). An additional cohort of healthy male Caucasian subjects (Cohort 4.1) was enrolled into the study (6 cohorts in total). The cohorts were as follows: Cohorts 1 to 4.1 had healthy Caucasian males, aged 18-45 years with a body weight of 60-100 kg and body mass index (BMI) between 19-28 kg/m^2 at screening and fasting triglycerides less than 1.69 mmol/L (less than 150 mg/dL) at the screening visit and Day-3. Cohort 5 had Caucasian males, aged 18-50 years with a body weight of 60-115 kg and BMI less than 35 kg/m^2 at screening and with elevated fasting triglycerides (TG≧1.69 mmol/L and <5.62 mmol/L; ≧150 mg/dL and <500 mg/dL) at the screening visit and Day-3.
# (§2) The planned treatment for Cohorts 1 to 4 was twice daily administration of 5 mg, 10 mg or 15 mg the compound of formula (I)/placebo, or once daily administration of 30 mg the compound of formula (1)/placebo. […] As only the compound of formula (I) 5 mg capsules were supplied for this study, doses were administered once daily to determine the maximum tolerated dose, and the planned doses for each subsequent cohort were amended based on the safety and tolerability data obtained from the preceding cohort. The dose level and dosing schedule planned for the patients in Cohort 5 was determined by the maximum tolerated dose and dosing schedule as reported from the planned Cohorts 1 to 4.1.
# (§3) Twelve healthy male Caucasian subjects were enrolled in each of Cohorts 1 to 4.1; dose cohorts were randomized in a ratio 9:3 to receive the compound of formula (I) or placebo, respectively, at the dose level associated with that cohort. Twelve male Caucasian patients with elevated triglycerides were randomized in a ratio of 8:4 to receive the compound of formula (I) or placebo, respectively, at the maximum tolerated dose level and dosing schedule.
# This study was conducted to investigate the safety and tolerability of the compound of formula (I) and to determine the pharmacokinetic and pharmacodynamic profiles of the compound of formula (I) administered, either once or twice a day, for 14 days to healthy non-fasting male Caucasian subjects and male Caucasian HTG patients. The planned treatment for Cohorts 1 to 4 was twice daily administration of 5 mg, 10 mg or 15 mg the compound of formula (I)/placebo, or once daily administration of 30 mg the compound of formula (I)/placebo. […] Consequently, doses were administered once daily to healthy volunteers, and the planned doses for each subsequent cohort were amended based on the safety and tolerability data obtained from the preceding cohort.
# serum lipid levels [7] = experiment: Example 6: serum lipid levels / pharmacodynamics; format: in vivo, human
# Excerpt: as §1, §2, §3
# [8] = Example 7: weight loss and tolerability in obese subjects; settings: for mean changes from baseline in weight: 2 weeks
# Description: This example involved a clinical study of the compound of formula (I), which was a randomized, double-blind, placebo-controlled, ascending dose study to evaluate the safety, tolerability and pharmacokinetics/pharmacodynamics of the compound of formula (I) tablets administered twice daily for two weeks in obese subjects.
# The subjects were separated into four arms of nine (one with ten) test subjects (which were administered the compound of formula (I)) and three placebo subjects.
smiles,measurement,setting,value
"CCOC(=O)C(COC(=O)Cc1ccc(NC(=O)c2ccccc2-c2ccc(C(F)(F)F)cc2)c(C(=O)N(C)C)c1)(C(=O)OCC)c1ccccc1 [compound of formula (I), diethyl 2-((2-(3-(dimethylcarbamoyl)-4-(4′-(trifiuoromethyl)biphenyl-2-ylcarboxamido)phenyl)acetoxy)methyl)-2-phenyl malonate]","LDL-C, HDL-C, TC, and ApoB values",serum lipid levels [1]; active group,decreased
same,"postprandial elevations for RLP-C, TG, LDL-TG, HDL-TG, CM-TG, and ApoB48",serum lipid levels [1]; active group,inhibited
same,"increase in postprandial values for RLP-C, TG, LDL-TG, HDL-TG, and CM-TG",serum lipid levels [1]; after the first dose on Day 1,inhibited an increase
same,toxicity findings,[2]; 3-month safety study,no toxicity findings
same,vitamins D and E,[2]; 3 months oral,decreased or tended to decrease
same,"postprandial elevation in TG, HDL-TG, LDL-TG, Midband-TG, and CM-TG",serum lipid levels [3],inhibited a postprandial elevation
same,plasma compound of formula (I) concentrations,"[4]; 0.5 and 1 mg BID, not quantifiable",< 0.3 ng/mL
same,plasma compound of formula (I) concentrations,[4]; 2 and 4 mg BID,"not quantifiable, except in a few sporadic cases"
same,events of gastrointestinal disorders,[5]; dose escalation group,14
same,events of infections and infestations,[5]; dose escalation group,6
same,events of laboratory test,[5]; dose escalation group,11
same,incidence of gastrointestinal disorders (SOC),[5]; dose escalation group,34.6%
same,incidence of infections and infestations (SOC),[5]; dose escalation group,19.2%
same,incidence of laboratory test (SOC),[5]; dose escalation group,23.1%
same,incidence of moderate adverse events,[5]; dose escalation group,15.4%
same,number of adverse events,[5]; dose escalation group,37
same,subjects with adverse events (incidence),[5]; dose escalation group,65.4%
same,subjects with moderate diarrhea,[5]; dose escalation group,three
same,incidence of gastrointestinal disorders,"[5]; dose escalation group, Weeks 9 to 12 (4 mg/day)",20.0%
same,events of gastrointestinal disorders,[5]; fixed-dose group,25
same,events of infections and infestations,[5]; fixed-dose group,four
same,events of laboratory test,[5]; fixed-dose group,nine
same,incidence of gastrointestinal disorders (SOC),[5]; fixed-dose group,50.0%
same,incidence of infections and infestations (SOC),[5]; fixed-dose group,15.4%
same,incidence of laboratory test (SOC),[5]; fixed-dose group,23.1%
same,incidence of moderate adverse events,[5]; fixed-dose group,15.4%
same,number of adverse events,[5]; fixed-dose group,45
same,subjects with adverse events (incidence),[5]; fixed-dose group,65.4%
same,subjects with moderate diarrhea,[5]; fixed-dose group,four
same,incidence of gastrointestinal disorders,"[5]; fixed-dose group, Weeks 1 to 4 (4 mg/day)",46.2%
same,"systolic and diastolic blood pressure, pulse rate, body temperature, body weight, ultrasonography",[5]; in vivo,No clinically relevant abnormal changes
same,death or serious adverse events,"[5]; tablets BID, 12 weeks",No death or other serious adverse events occurred
same,subjects withdrawn due to adverse events,"[6]; 5 mg BID, Cohort 1",5 subjects
same,tolerability,"[6]; 5 mg BID, HTG patients, Cohort 5",reasonably well tolerated
same,tolerability,"[6]; 5 mg BID, healthy subjects, Cohort 1",poorly tolerated; also recorded: not well tolerated
same,subjects reporting treatment-emergent adverse events,"[6]; HTG patients receiving compound, Cohort 5",88 % of treatment group
same,"safety analyses (liver MRIs, tryptase, fat soluble vitamins, fecal fat)",[6]; any cohort,no clinically relevant findings
same,subjects reporting treatment-emergent adverse events,[6]; healthy subjects receiving compound,76 % of treatment group
same,tolerability,"[6]; healthy subjects, Cohorts 2 (5 mg QD), 3 (10 mg QD), 4 (15 mg QD), 4.1 (20 mg QD)",reasonably well-tolerated
same,fatty liver (liver MRI),"[6]; human, in vivo",without the presence of fatty liver
same,renal function tests,"[6]; human, in vivo",did not suggest drug-related nephrotoxicity or hyperglycaemia
same,"effects on LDL-C, HDL-C, VLDL-C, and VLDL-TG vs QD regimens",serum lipid levels [7]; 5 mg BID,more marked effects
same,expected postprandial increase of TG and chylomicron-TG,serum lipid levels [7]; healthy subjects and patients with high TG,suppressed
same,campesterol (marker of cholesterol absorption),serum lipid levels [7]; in vivo,affects campesterol
same,lathosterol (marker of cholesterol synthesis by the liver),serum lipid levels [7]; in vivo,not lathosterol
same,"impact on triglyceride-rich lipoproteins (ApoCII, ApoCIII, VLDL-TG, VLDL-C)",serum lipid levels [7]; once-daily regimen,no discernible impact
same,mean changes from baseline in weight,[8]; 1 mg BID,-0.31 kg
same,average weight loss,"[8]; 1 mg BID, 14 days",0.31 kg
same,mean changes from baseline in weight,[8]; 2.5 mg BID,-0.68 kg
same,average weight loss,"[8]; 2.5 mg BID, 14 days",0.68 kg
same,mean changes from baseline in weight,[8]; 3.5 mg BID,-1.39 kg
same,average weight loss,"[8]; 3.5 mg BID, 14 days",1.39 kg
same,average weight loss,"[8]; 5 mg BID, 14 days",2.07 kg
same,average weight loss,"[8]; 5 mg BID, Day 10 (n=9)",2.32 kg
same,subjects who withdrew due to GI-related adverse events prior to Day 14,[8]; 5 mg dose group,six
same,tolerability at 5 mg BID,[8]; obese subjects,not at 5 mg BID
same,well tolerated doses,[8]; obese subjects,up to 3.5 mg BID

# Reference: patent US20120302636A1, “METHOD OF TREATING A DISORDER ASSOCIATED WITH MTP” (priority 2009, published 2012)
